Measurements: PubChem BioAssay AID2060598 (Global Health Medicines R&D, GSK, 2025)

Target: P. falciparum 3D7A growth, LDH activity
Assay: asexual P. falciparum growth inhibition, dose response, strain 3D7A, LDH readout (AID 2060598)

Compound	IC50 (restricted media, 72 h)	IC50 (standard media with serum)
O=C(Nc1ccc(N2CCCC2)nc1)N1CCN(c2cnccn2)CC1	79.4 nM	2000 nM
O=C(CCn1nnc2cc(S(=O)(=O)N3CCCC3)ccc21)N1CCN(c2ccccn2)CC1	126 nM	1260 nM
O=C(CCCc1c[nH]c2ccccc12)N1CCN(c2ccc(N3CCOCC3)nn2)CC1	398 nM	5010 nM
COc1ccc(NC(=O)c2ccc3c(=O)n(Cc4ccccn4)cnc3c2)cc1N1CCN(C)CC1	398 nM	3980 nM
CCN(C(=O)C=Cc1ccc(S(=O)(=O)N2CCc3ccccc32)cc1)C1CCS(=O)(=O)C1 (stereo unspecified)	200 nM	2510 nM
O=C(CCN=C1NS(=O)(=O)c2ccccc21)Nc1ccc(S(=O)(=O)N2CCCC2)cc1	794 nM	7940 nM
NC(=O)CC1CCN(C(=O)c2sc3sccc3c2Cl)CC1	316 nM	3160 nM
CCN(CC)c1ccc(C(=O)COc2ccc3c(c2)CCNCC3)cc1	63.1 nM	1000 nM
O=C(c1cc2ccccc2[nH]1)N1CCC2(CC(Nc3ccncn3)C2)C1 (stereo unspecified)	31.6 nM	316 nM
Cc1nn(C2CCS(=O)(=O)C2)c(C)c1CN(C)C(=O)CN1C(=O)NC2(CCCCC2C)C1=O (stereo unspecified)	63.1 nM	631 nM
O=C(COc1ccc(Br)cc1F)N1CCN(c2cnccn2)CC1	251 nM	2510 nM
Cc1cc(Cl)ccc1OCC(=O)N1CCc2c(cnc(C)c2CNC(=O)c2ccc(=O)[nH]n2)C1	20 nM	316 nM
O=C1CSc2ccc(C(=O)Nc3ccc(-c4nnc5n4CCCCC5)cc3)cc2N1	501 nM	5010 nM
CCCOc1cncc(S(=O)(=O)c2ccc3c(c2)CCN(C2CCC2)CC3)c1	316 nM	3980 nM
O=C(CCCc1ncc(-c2ccccc2)o1)N1CCOC2CCCC21 (stereo unspecified)	158 nM	2000 nM
Cn1cccc1C1CCCN1CC(=O)Nc1ccc(S(=O)(=O)N2CCOCC2)cc1 (stereo unspecified)	794 nM	10000 nM
CN(C(=O)C[C@@H]1CCN(C(=O)C2CC2)C1)c1ccc(-c2ccc(C#N)cc2)cc1	251 nM	3980 nM
COc1ccc(C(=O)N2CCN(c3ccc(-n4cccn4)nn3)CC2)cc1OC	126 nM	1580 nM
Cc1ccc2nc(CCNC(=O)CCS(=O)(=O)c3ccc4c(c3)CC(=O)N4C)[nH]c2c1	31.6 nM	501 nM
COc1ccc2oc(C(=O)NC3CCC(Oc4ncccn4)CC3)cc2c1 (stereo unspecified)	126 nM	1260 nM
CC(C)Oc1ccc(-c2nnc(Oc3cccc4c3CCN(CCC(N)=O)CC4)s2)cc1C#N	501 nM	10000 nM
Cc1cc(-c2cnc(N3CCn4c(nnc4C4CC4)C3)nc2-c2ccncc2)on1	100 nM	1580 nM

Further lines, results first:

IC50 (restricted media, 72 h)	IC50 (standard media with serum)	Compound
501 nM	> 50100 nM	O=C1CCCN1c1ccc(S(=O)(=O)N2CCN(S(=O)(=O)c3ccccc3)CC2)cc1
794 nM	7940 nM	O=C(Nc1cccnc1)C1CCN(c2ccc(-c3ccco3)nn2)CC1
79.4 nM	1000 nM	COc1ccc(N2CCN(C(=O)c3csc(Nc4ccccc4S(C)(=O)=O)n3)CC2)nc1
63.1 nM	631 nM	COc1ccc(-c2ccc(CNC(=O)c3cc(C(=O)NC(C)C)ccc3Cl)cc2)cn1
794 nM	7940 nM	Cc1cccc(-c2nn(Cc3ccc(C(=O)NCCCO)cc3)c(=O)cc2N2CCCC(CO)C2)c1 (stereo unspecified)
63.1 nM	794 nM	O=C(NCCCN1CCc2ccccc21)c1ccc2c(=O)n(Cc3ccccn3)cnc2c1
39.8 nM	398 nM	N#Cc1cccc(NC(=O)CNc2ccccc2C(=O)NC2CC2)c1
50.1 nM	631 nM	N#Cc1c(N)n[nH]c1CCCNC(=O)c1ccc(Cl)c(S(=O)(=O)N2CCCC2)c1
20 nM	200 nM	O=C(Nc1nnc(-c2ccccc2)s1)N1CCCN(c2ncccn2)CC1
158 nM	2000 nM	O=C(/C=C/c1n[nH]c2ccccc12)N1CCN(c2cnccn2)CC1
316 nM	3160 nM	O=C(/C=C/c1n[nH]c2ccccc12)Nc1ccc(C(=O)NCCN2CCOCC2)cc1
